Numbers after ± are expanded uncertainties.
Test: mn = molality of the nth substance listed, in mol/kg
Details: 99.6 kPa, Liquid; for viscosity: Capillary tube (Ostwald / Ubbelohde) method; for mass density: Vibrating tube method

CNC(C)=O [N-methylacetamide] + [Cl-].[Cl-].[Mg+2]
Details | mass density, 308.15 K [kg/m3] | mass density, 313.15 K [kg/m3] | mass density, 318.15 K [kg/m3] | mass density, 323.15 K [kg/m3] | mass density, 328.15 K [kg/m3] | viscosity, 308.15 K [mPa·s] | viscosity, 313.15 K [mPa·s] | viscosity, 318.15 K [mPa·s] | viscosity, 323.15 K [mPa·s] | viscosity, 328.15 K [mPa·s]
m2 = 0 | 945.71 ± 1.9 | 941.53 ± 1.9 | 937.33 ± 1.9 | 933.16 ± 1.9 | 928.93 ± 1.9 | 3.488 ± 0.043 | 3.073 ± 0.038 | 2.723 ± 0.034 | 2.438 ± 0.03 | 2.194 ± 0.027
m2 = 0.00111 | 945.76 ± 1.9 | 941.57 ± 1.9 | 937.37 ± 1.9 | 933.2 ± 1.9 | 928.98 ± 1.9 | 3.491 ± 0.043 | 3.077 ± 0.038 | 2.725 ± 0.034 | 2.44 ± 0.03 | 2.196 ± 0.027
m2 = 0.004 | 945.9 ± 1.9 | 941.69 ± 1.9 | 937.51 ± 1.9 | 933.33 ± 1.9 | 929.12 ± 1.9 | 3.502 ± 0.043 | 3.087 ± 0.038 | 2.735 ± 0.034 | 2.448 ± 0.03 | 2.203 ± 0.027
m2 = 0.00479 | 945.94 ± 1.9 | 941.73 ± 1.9 | 937.54 ± 1.9 | 933.37 ± 1.9 | 929.16 ± 1.9 | 3.505 ± 0.043 | 3.09 ± 0.038 | 2.737 ± 0.034 | 2.451 ± 0.03 | 2.204 ± 0.027
m2 = 0.00663 | 946.03 ± 1.9 | 941.81 ± 1.9 | 937.63 ± 1.9 | 933.45 ± 1.9 | 929.24 ± 1.9 | 3.512 ± 0.043 | 3.097 ± 0.038 | 2.743 ± 0.034 | 2.455 ± 0.03 | 2.208 ± 0.027
m2 = 0.00734 | 946.06 ± 1.9 | 941.85 ± 1.9 | 937.66 ± 1.9 | 933.48 ± 1.9 | 929.29 ± 1.9 | 3.514 ± 0.043 | 3.099 ± 0.038 | 2.747 ± 0.034 | 2.457 ± 0.03 | 2.211 ± 0.027
m2 = 0.00868 | 946.13 ± 1.9 | 941.92 ± 1.9 | 937.73 ± 1.9 | 933.54 ± 1.9 | 929.35 ± 1.9 | 3.52 ± 0.043 | 3.103 ± 0.038 | 2.75 ± 0.034 | 2.462 ± 0.03 | 2.214 ± 0.027
m2 = 0.01179 | 946.27 ± 1.9 | 942.07 ± 1.9 | 937.87 ± 1.9 | 933.7 ± 1.9 | 929.49 ± 1.9 | 3.531 ± 0.043 | 3.114 ± 0.038 | 2.76 ± 0.034 | 2.471 ± 0.03 | 2.221 ± 0.027
m2 = 0.01529 | 946.45 ± 1.9 | 942.24 ± 1.9 | 938.04 ± 1.9 | 933.87 ± 1.9 | 929.68 ± 1.9 | 3.544 ± 0.044 | 3.127 ± 0.038 | 2.771 ± 0.034 | 2.48 ± 0.031 | 2.23 ± 0.028
m2 = 0.02124 | 946.72 ± 1.9 | 942.53 ± 1.9 | 938.33 ± 1.9 | 934.15 ± 1.9 | 929.95 ± 1.9 | 3.566 ± 0.044 | 3.147 ± 0.039 | 2.792 ± 0.034 | 2.495 ± 0.031 | 2.244 ± 0.028
m2 = 0.02416 | 946.86 ± 1.9 | 942.67 ± 1.9 | 938.47 ± 1.9 | 934.29 ± 1.9 | 930.09 ± 1.9 | 3.577 ± 0.044 | 3.156 ± 0.039 | 2.801 ± 0.034 | 2.505 ± 0.031 | 2.251 ± 0.028
m2 = 0.05144 | 948.15 ± 1.9 | 943.94 ± 1.9 | 939.77 ± 1.9 | 935.6 ± 1.9 | 931.4 ± 1.9 | 3.681 ± 0.045 | 3.251 ± 0.04 | 2.89 ± 0.036 | 2.579 ± 0.032 | 2.317 ± 0.029
m2 = 0.0831 | 949.6 ± 1.9 | 945.45 ± 1.9 | 941.26 ± 1.9 | 937.11 ± 1.9 | 932.91 ± 1.9 | 3.798 ± 0.047 | 3.361 ± 0.041 | 2.994 ± 0.037 | 2.67 ± 0.033 | 2.391 ± 0.029

Reference: the NIST ThermoML archive (doi:10.1021/acs.jced.9b00046)
